How the values were obtained:
[1] = Liquid, Ebulliometric method (Recirculating still)
[2] = refractive index (Na D-line) (dimensionless); xn = mol fraction of the nth substance listed; conditions: 293.15 K, 101 kPa, Liquid, Standard Abbe refractometry

CCCCO [butan-1-ol]
[1]
Conditions	vapor or sublimation pressure [kPa]
356.35 K	25.3
359.45 K	29.3
362.95 K	33.5
368.6 K	42.8
373.45 K	52.5
377.3 K	61.2
381.9 K	72.8
386.05 K	84.9
391.95 K	105.3
395.8 K	120.1

CCCCO [butan-1-ol] + CCCO
[2]
Conditions	refractive index
x2 = 0	1.3992
x2 = 0.0852	1.3979
x2 = 0.1369	1.3971
x2 = 0.1987	1.3962
x2 = 0.2741	1.395
x2 = 0.3521	1.3939
x2 = 0.4218	1.3928
x2 = 0.5	1.3916
x2 = 0.5742	1.3905
x2 = 0.6588	1.3892
x2 = 0.7123	1.3884
x2 = 0.7986	1.3871
x2 = 0.862	1.3862
x2 = 0.936	1.385

CCCO [propan-1-ol]
[1]
Conditions	vapor or sublimation pressure [kPa]
337.95 K	25.6
341.35 K	30.1
346.15 K	37.4
350.8 K	46
353.25 K	51.1
357.35 K	60.7
362.45 K	74.7
366.25 K	86.8
370.4 K	101.8
373.65 K	114.9

CCCO [propan-1-ol] + CCCCO
Conditions	refractive index
[2], x1 = 1	1.3841

— the NIST ThermoML archive (doi:10.1016/j.jct.2010.02.001)
